Experimental findings from ChEMBL document CHEMBL1201862, “PubChem BioAssay data set” (2004) are described below.

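Method: 48-hour compound exposure of cells in 96-well plates, five concentrations, linear interpolation of endpoints. Abbreviation: GI50, concentration required for 50% inhibition of growth.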 Activity calls are given as the source filed them. Rule as the data show it: active = GI50 up to about 1.1 µM and inactive = higher. A value given as a limit tells only on which side of the number the result lay.

Holding throughout (assay): DTP human tumour cell line panel, 48 h
In test [1] the test system is DLD-1.
Test [2] concerns DMS-114.
Test [3] concerns DMS-273.
The subject of test [4] is HOP-18.
Test [5] concerns KM-20L2.
Test [6] concerns SNB-78.
Test [7] has as its system XF498.
The subject of test [8] is LXFL 529.
The subject of test [9] is RXF 631.

`COc1ccc2c(c1)OCCc1cn[nH]c1-2`: the GI50 was 36.7 µM (inactive) in test [1]; 27.3 µM (inactive) in test [2]; 32.2 µM (inactive) in test [3]; 30.8 µM (inactive) in test [4]; 54 µM (inactive) in [5]; 29.1 µM (inactive) in [6]. Moreover, the GI50 in test [7] is 29 µM (inactive).

With `O=C(CSc1nnc(Cc2ccccc2)o1)Nc1cccc([N+](=O)[O-])c1`, the GI50 in test [1], in test [2], in test [3], in test [4], in test [5] and in test [8] was > 100 µM (inactive) in each case. For the same compound, the GI50 in [6] was > 100 µM (inactive).

For `CCOc1ccc(NCC(=O)N2CC(=O)Nc3ccccc32)cc1`, the GI50 in [1], in test [3], in test [4], in test [5], in [8] and in [6] was > 100 µM (inactive) each time. Moreover, the GI50 in [7] was > 100 µM (inactive).

In the case of `COc1cc(NC(C)=O)c2[nH]c3c(C)cc(NC(C)=O)c(C)c3c2c1`, the GI50 in [1], in [2], in test [3], in [4], in test [5] and in [8] was > 100 µM (inactive) throughout. Moreover, the GI50 in [7] was > 100 µM (inactive).

Consider `O=C1c2ccccc2C(=O)N1Cc1ccccc1-c1c2nc(c(-c3ccccc3CN3C(=O)c4ccccc4C3=O)c3ccc([nH]3)c(-c3ccccc3CN3C(=O)c4ccccc4C3=O)c3nc(c(-c4ccccc4CN4C(=O)c5ccccc5C4=O)c4ccc1[nH]4)C=C3)C=C2`, for which the GI50 in test [1], in test [2], in test [3], in test [4], in [5] and in test [8] was > 100 µM (inactive) each time. Further, the GI50 in test [6] was > 100 µM (inactive).

For `C/C(CC(=O)Nc1ccc(Cl)cc1)=N\NC(=O)C[n+]1ccccc1`, the GI50 in test [1], in [2], in [3], in [5], in test [8] and in [9] was > 100 µM (inactive) each time. Moreover, the GI50 in test [6] and in test [7] was > 100 µM (inactive) each time.

As for `NCCNc1ccc(NCCN)c2c1C(=O)c1c(O)ccc(O)c1C2=O`, the GI50 in test [1] was 0.0336 µM (active); in [2], < 0.001 µM (active); in [3] it was < 0.001 µM (active); in test [4], 0.361 µM (active); in test [5], 0.0181 µM (active); in test [8], 0.00807 µM (active). For the same compound, the values for the concentration for 50% growth inhibition (GI50) in test [9], in test [6] and in test [7] were < 0.001 µM (active), 0.207 µM (active) and < 0.001 µM (active), respectively.

Regarding `CCOC(=O)C1(C#N)C(c2ccccc2)CC(O)(c2ccc([N+](=O)[O-])cc2)C(C(=O)c2ccc([N+](=O)[O-])cc2)C1c1ccccc1` (centres undefined), the GI50 in test [1] is > 100 µM (inactive); in test [2], > 100 µM (inactive); in test [3], > 100 µM (inactive); in test [4], 29.9 µM (inactive); in [5], > 100 µM (inactive); in test [8], > 100 µM (inactive). For the same compound, the GI50 in test [6] and in [7] was > 100 µM (inactive) in each case.

Consider `Cc1cc(NS(=O)(=O)c2ccc(NC(=O)COC(=O)c3cccc4c(=O)c5ccccc5[nH]c34)cc2)no1`, for which the GI50 in [1], in [2], in [3], in [5], in [8] and in test [6] was > 100 µM (inactive) in each case. Besides, the GI50 in test [7] is > 100 µM (inactive).

In the case of `COC(=O)C(CC(C)C)NC(=O)NC12CC3CC(CC(F)(C3)C1)C2` (centres undefined), the GI50 in test [1], in test [2], in test [5], in test [8], in [9] and in test [6] was > 100 µM (inactive) in each case.

Consider `Cc1c(C)c2cc3c(=O)c(CCl)coc3c(C)c2oc1=O`, for which the GI50 in [2], in test [4], in [5], in test [8], in test [9] and in test [6] was > 100 µM (inactive) in each case.

Turning to `CC(=O)CCC#Cc1ccccc1C(=O)C(C)=[N+]=[N-]`, the GI50 in [1] is 79.8 µM (inactive); in [2], 12.9 µM (inactive); in [3], 26.4 µM (inactive); in [4], 97.1 µM (inactive); in test [5] it was 79.1 µM (inactive); in test [7], 20.5 µM (inactive).

On to `CC(C)=CCc1c(O)cc(O)c2c1OC(c1ccc(O)cc1)C(O)C2=O` (centres undefined), for which the GI50 is 30.2 µM (inactive) in test [1]; 39.4 µM (inactive) in [2]; 17.8 µM (inactive) in test [4]; 18.1 µM (inactive) in [5]; 28.8 µM (inactive) in test [8]; 31.8 µM (inactive) in test [9]. Besides, the GI50 is 24.3 µM (inactive) in [6] and 30.2 µM (inactive) in test [7].

Regarding `CC(=O)OC1CC2OC(Cc3ccccc32)O1` (centres undefined), the GI50 was 64.1 µM (inactive) in test [1]; > 100 µM (inactive) in test [2]; > 100 µM (inactive) in [3]; 32.8 µM (inactive) in test [4]; > 100 µM (inactive) in test [5]; > 100 µM (inactive) in test [8]. The GI50 in test [6] and in [7] was > 100 µM (inactive) in each case.

In the case of `O=C[C@@H](CO)O[C@H](C=O)n1cnc2c(=O)nc[nH]c21`, the GI50 is 77.8 µM (inactive) in test [1]; 39.2 µM (inactive) in [2]; 101 µM (inactive) in test [3]; 388 µM (inactive) in test [4]; 426 µM (inactive) in [5]; 562 µM (inactive) in test [6]. The GI50 in test [7] was 459 µM (inactive).

For `O=C(C=P(c1ccccc1)(c1ccccc1)c1ccccc1)CC(=S)CC(=O)C=P(c1ccccc1)(c1ccccc1)c1ccccc1`, the GI50 in test [1] is 4.58 µM (inactive); in test [2], 3.41 µM (inactive); in [3], 2.88 µM (inactive); in [4] it was 2.59 µM (inactive); in [5], 4.29 µM (inactive); in test [8], 2.77 µM (inactive). In addition, the GI50 in [9] is > 100 µM (inactive).

Consider `COC(=O)C(Cc1nc2ccc(Cl)cc2nc1O)/C(=N/O)C(=O)Nc1cccc(Cl)c1C` (centres undefined), for which the GI50 in [1], in [2], in test [3], in [4], in [5] and in [8] was > 100 µM (inactive) in each case. In addition, the GI50 in [6] and in [7] was > 100 µM (inactive) throughout.

Take `CC(C)OC(=O)C1Cc2c([nH]c3ccccc23)C(c2ccccc2)N1` (centres undefined): the GI50 in [1] is 23.6 µM (inactive); in [2], 52.4 µM (inactive); in [3] it was > 100 µM (inactive); in test [5] it was > 100 µM (inactive); in test [8] it was 79.6 µM (inactive); in [6], > 100 µM (inactive). Also, the GI50 in [7] was > 100 µM (inactive).

With `O=C1NC2OC(C(O)CO)C(O)C2O1` (centres undefined), the GI50 in test [2], in [3], in test [4], in test [5], in test [8] and in test [7] was > 100 µM (inactive) throughout.

As to `Cc1ccccc1NC(=O)C(=O)CC(=O)c1ccc([N+](=O)[O-])cc1`, the GI50 in test [1], in test [2], in [3], in test [4], in test [5] and in [8] was > 100 µM (inactive) each time. In addition, the GI50 in test [9], in test [6] and in test [7] was > 100 µM (inactive) each time.

For `Cc1nc2ccc(NCCN(C)C)c3c(=O)c4cc(O)ccc4n1c23`, the 50% growth inhibitory concentration (GI50) in [1] was 0.148 µM (active); in [2] it was 0.885 µM (active); in test [3], 0.189 µM (active); in test [8], 0.752 µM (active); in test [9], 0.0355 µM (active); in [7] it was 1.56 µM (inactive).

For `COc1cc(C(=O)C/C(CCC(=O)Nc2ccc(Cl)cc2Cl)=N/NC(=O)C(N)=O)ccc1O`, the GI50 in test [1], in test [2], in [3], in [4], in test [5] and in test [8] was > 100 µM (inactive) each time. In addition, the GI50 in [9], in test [6] and in test [7] was > 100 µM (inactive) throughout.

Take `COc1cccc(N[C@@H]2c3cc4c(cc3C(c3cc(OC)c(O)c(OC)c3)[C@H]3C(=O)OCC32)OCO4)c1` (some centres undefined): the GI50 in [1] was 1.58 µM (inactive); in [2] it was 0.578 µM (active); in test [3], 0.148 µM (active); in test [4], 1.52 µM (inactive); in test [5], 1.46 µM (inactive); in [6], 5.36 µM (inactive). The GI50 in test [7] was 1.12 µM (inactive).

For the compound `COc1cc2c(c(OC)c1OC)-c1ccc(SC)c(=O)cc1[C@@H](NCc1ccc(C#N)cc1)CC2`, the GI50 in test [1] was 0.00348 µM (active); in test [2], 0.00236 µM (active); in [3] it was 0.0034 µM (active); in test [5], 0.00194 µM (active); in [8], 0.0053 µM (active); in test [6] it was 0.00531 µM (active). In addition, the concentration for 50% growth inhibition (GI50) in test [7] was 0.00321 µM (active).

Usually GI50 stands for the concentration that inhibits growth by half.
